In PubChem BioAssay (NCI):
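In this assay, cells in 96-well plates receive the compound at five concentrations for 48 hours. Endpoints are linearly interpolated between the surrounding concentrations. At the GI50, growth is halved. TGI denotes the concentration required for complete inhibition of growth.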

Tests used:
Test in all cases: NCI anticancer screen, dose series, 48 h; in the data active = GI50 below about 0.43 µM; inactive = the rest
SW-620 colon = test system: SW-620 colon
U251 CNS = test system: U251 CNS
HS 578T breast = test system: HS 578T breast
HT29 colon = test system: HT29 colon
MCF7 breast = test system: MCF7 breast
786-0 renal = test system: 786-0 renal
MDA-MB-231 breast = test system: MDA-MB-231 breast
MALME-3M melanoma = test system: MALME-3M melanoma
OVCAR-8 ovarian = test system: OVCAR-8 ovarian
SF-539 CNS = test system: SF-539 CNS
SK-OV-3 ovarian = test system: SK-OV-3 ovarian
OVCAR-5 ovarian = test system: OVCAR-5 ovarian
A549 NSCLC = test system: A549 NSCLC
EKVX NSCLC = test system: EKVX NSCLC
NCI-H23 lung = test system: NCI-H23 lung
SNB-19 CNS = test system: SNB-19 CNS
HL-60(TB) leukemia = test system: HL-60(TB) leukemia
CAKI-1 renal = test system: CAKI-1 renal
RXF 393 renal = test system: RXF 393 renal
UACC-257 melanoma = test system: UACC-257 melanoma
UO-31 renal = test system: UO-31 renal
MDA-N = test system: MDA-N
SNB-75 CNS = test system: SNB-75 CNS
OVCAR-3 ovarian = test system: OVCAR-3 ovarian
M14 melanoma = test system: M14 melanoma
NCI/ADR-RES ovarian = test system: NCI/ADR-RES ovarian
LOX IMVI melanoma = test system: LOX IMVI melanoma
RPMI-8226 leukemia = test system: RPMI-8226 leukemia
ACHN renal = test system: ACHN renal
MOLT-4 leukemia = test system: MOLT-4 leukemia
TK-10 renal = test system: TK-10 renal
A498 renal = test system: A498 renal
SF-295 CNS = test system: SF-295 CNS
SK-MEL-28 melanoma = test system: SK-MEL-28 melanoma
NCI-H226 lung = test system: NCI-H226 lung
KM12 colon = test system: KM12 colon
NCI-H460 lung = test system: NCI-H460 lung
K-562 leukemia = test system: K-562 leukemia
DU-145 prostate = test system: DU-145 prostate
OVCAR-4 ovarian = test system: OVCAR-4 ovarian
COLO 205 colon = test system: COLO 205 colon
T-47D breast = test system: T-47D breast
HCT-15 colon = test system: HCT-15 colon
MDA-MB-435 = test system: MDA-MB-435
UACC-62 melanoma = test system: UACC-62 melanoma
HOP-62 NSCLC = test system: HOP-62 NSCLC
HCT-116 colon = test system: HCT-116 colon
HCC-2998 colon = test system: HCC-2998 colon
SN12C renal = test system: SN12C renal
SK-MEL-2 melanoma = test system: SK-MEL-2 melanoma
BT-549 breast = test system: BT-549 breast
NCI-H522 lung = test system: NCI-H522 lung
SF-268 CNS = test system: SF-268 CNS
SK-MEL-5 melanoma = test system: SK-MEL-5 melanoma
PC-3 prostate = test system: PC-3 prostate
IGROV1 ovarian = test system: IGROV1 ovarian
CCRF-CEM leukemia = test system: CCRF-CEM leukemia

O=C(O)CN(CCN(CC(=O)O)CC(=O)O)CC(=O)O.[Cu+2].[Na+]
> 100 µM: TGI (SW-620 colon) | TGI (U251 CNS) | TGI (HS 578T breast) | TGI (HT29 colon) | TGI (MCF7 breast) | TGI (786-0 renal) | TGI (MDA-MB-231 breast) | TGI (MALME-3M melanoma) | TGI (OVCAR-8 ovarian) | TGI (SF-539 CNS) | TGI (OVCAR-5 ovarian) | TGI (A549 NSCLC) | TGI (EKVX NSCLC) | TGI (NCI-H23 lung) | TGI (SNB-19 CNS) | TGI (HL-60(TB) leukemia) | TGI (CAKI-1 renal) | TGI (RXF 393 renal) | TGI (UACC-257 melanoma) | TGI (UO-31 renal) | TGI (MDA-N) | TGI (SNB-75 CNS) | TGI (M14 melanoma) | TGI (NCI/ADR-RES ovarian) | TGI (LOX IMVI melanoma) | TGI (RPMI-8226 leukemia) | TGI (ACHN renal) | TGI (MOLT-4 leukemia) | TGI (TK-10 renal) | TGI (A498 renal) | TGI (SK-MEL-28 melanoma) | TGI (NCI-H226 lung) | TGI (KM12 colon) | TGI (NCI-H460 lung) | TGI (K-562 leukemia) | TGI (DU-145 prostate) | TGI (OVCAR-4 ovarian) | TGI (COLO 205 colon) | TGI (T-47D breast) | TGI (HCT-15 colon) | TGI (MDA-MB-435) | TGI (UACC-62 melanoma) | TGI (HCT-116 colon) | TGI (HCC-2998 colon) | TGI (SN12C renal) | TGI (SK-MEL-2 melanoma) | TGI (BT-549 breast) | TGI (NCI-H522 lung) | TGI (SF-268 CNS) | TGI (SK-MEL-5 melanoma) | TGI (PC-3 prostate) | TGI (IGROV1 ovarian) | TGI (CCRF-CEM leukemia)
51.8 µM: TGI (OVCAR-3 ovarian)
63.3 µM: TGI (SF-295 CNS)
65.2 µM: TGI (SK-OV-3 ovarian)
inactive: GI50 (SW-620 colon) > 100 µM | GI50 (U251 CNS) > 100 µM | GI50 (HS 578T breast) > 100 µM | GI50 (HT29 colon) > 100 µM | GI50 (MCF7 breast) > 100 µM | GI50 (786-0 renal) > 100 µM | GI50 (MDA-MB-231 breast) > 100 µM | GI50 (MALME-3M melanoma) > 100 µM | GI50 (OVCAR-8 ovarian) > 100 µM | GI50 (SF-539 CNS) > 100 µM | GI50 (SK-OV-3 ovarian) 23.5 µM | GI50 (OVCAR-5 ovarian) > 100 µM | GI50 (A549 NSCLC) > 100 µM | GI50 (EKVX NSCLC) > 100 µM | GI50 (NCI-H23 lung) > 100 µM | GI50 (SNB-19 CNS) > 100 µM | GI50 (HL-60(TB) leukemia) > 100 µM | GI50 (CAKI-1 renal) > 100 µM | GI50 (RXF 393 renal) > 100 µM | GI50 (UACC-257 melanoma) > 100 µM | GI50 (UO-31 renal) > 100 µM | GI50 (MDA-N) > 100 µM | GI50 (SNB-75 CNS) > 100 µM | GI50 (OVCAR-3 ovarian) 19.2 µM | GI50 (M14 melanoma) > 100 µM | GI50 (NCI/ADR-RES ovarian) > 100 µM | GI50 (LOX IMVI melanoma) > 100 µM | GI50 (RPMI-8226 leukemia) > 100 µM | GI50 (ACHN renal) > 100 µM | GI50 (MOLT-4 leukemia) > 100 µM | GI50 (TK-10 renal) > 100 µM | GI50 (A498 renal) > 100 µM | GI50 (SF-295 CNS) 22.3 µM | GI50 (SK-MEL-28 melanoma) > 100 µM | GI50 (NCI-H226 lung) > 100 µM | GI50 (KM12 colon) > 100 µM | GI50 (NCI-H460 lung) > 100 µM | GI50 (K-562 leukemia) > 100 µM | GI50 (DU-145 prostate) > 100 µM | GI50 (OVCAR-4 ovarian) > 100 µM | GI50 (COLO 205 colon) > 100 µM | GI50 (T-47D breast) > 100 µM | GI50 (HCT-15 colon) > 100 µM | GI50 (MDA-MB-435) > 100 µM | GI50 (UACC-62 melanoma) > 100 µM | GI50 (HOP-62 NSCLC) 26.2 µM | GI50 (HCT-116 colon) > 100 µM | GI50 (HCC-2998 colon) > 100 µM | GI50 (SN12C renal) > 100 µM | GI50 (SK-MEL-2 melanoma) > 100 µM | GI50 (BT-549 breast) > 100 µM | GI50 (NCI-H522 lung) > 100 µM | GI50 (SF-268 CNS) > 100 µM | GI50 (SK-MEL-5 melanoma) > 100 µM | GI50 (PC-3 prostate) > 100 µM | GI50 (IGROV1 ovarian) > 100 µM | GI50 (CCRF-CEM leukemia) > 100 µM
79.5 µM: TGI (HOP-62 NSCLC)
